In experiment [1] the test system is Pasteurella multocida. Put plainly: Efficacy against Pasteurella multocida infections in mice when administered by injection. Format: in vivo, Female Swiss mice. The following applies: for responders at 2.5 mg/kg / responders at 5 mg/kg / responders at 1.25 mg/kg: Pasteurella multocida, ip, read-out: Survival ratio (mice surviving / mice tested) (converted); for responders at 2.5 mg/kg: 2.5 mg./kg. intraperitoneal; for responders at 1.25 mg/kg: 1.25 mg./kg. intraperitoneal. The protocol:
The efficacy of the novel compounds against Pasteurella multocida infections in mice when administered by injection was studied.
Female Swiss mice weighing from 15 to about 20 g. were used. The test compound, 5.0 mg., was weighed out and dissolved in 0.5 ml. of dimethyl sulfoxide, and this solution was added to 9.5 ml. of sodium carboxymethylcellulose suspension. Groups of five mice each were injected intraperitoneally with 0.1 ml. each of the above-prepared test composition. This preparation gave a test rate of 2.5 mg. per kilo of body weight of mouse. The compounds were tested at 1.25, 2.5, or 5.0 per kilogram of body weight of mouse, and the test preparations for the rates of 1.25 and 5.0 mg./kg. were prepared in a similar manner. Immediately after receiving the test compound, the mice were challenged using log10 dilutions of 10^-^4, 10^-^5 and 10^-^6,of a 16 to 20-hour tryptose broth culture of Pasteurella multocida at 0.1 ml. per mouse subcutaneously. Similar groups of nontreated control mice were also challenged, the challenge being administered subcutaneously. The groups of mice were observed daily for mortality and the total mortality in treated groups compared with that which occurred in the nonmedicated control groups. Each test compound is identified by the number of the example describing its preparation.
In the chart, column 1 lists the test compound; column 2, the dosage of test compound in mg./kg. of mouse body weight; column 3, the dilution of the challenge organism; and column 4, the ratio of the number of mice surviving the test at each dosage and challenge dilution to the number of mice tested at each dosage and challenge dilution, called the survival ratio.

For experiment [2], the system named is Salmonella typhimurium. Put plainly: In vivo activity against Salmonella typhimurium in chicks, subcutaneous.
The test system of experiment [3] is Aeromonas liquefaciens. Put plainly: In vitro activity against fish bacterial pathogen, standard tube dilution test (MIC). The experiment is classed as cell-based. Conditions: Aeromonas hydrophila, read-out: minimum inhibitory concentration (MIC). As for the experimental part:
(§1) The in vitro activity of certain of the novel compounds of this invention against two fish bacterial pathogens was determined using tryptose broth and the standard tube dilution test system. Doubling dilutions ranging from 100.0 to 0.78 mcg./ml. of each of the test compounds were prepared in 5 ml. amounts of tryptose broth. Each tube in the series was then inoculated with one drop from a 24-hour broth culture of either Pseudomonas sp. or a strain of Aeromonas liquefaciens. The tubes were incubated overnight at about 37° C., and the minimum inhibitory concentration (MIC) determined and recorded.
(§2) Column 1 lists the test compounds identified by their operating example number; column 2 lists the MIC for Pseudomonas sp.; and column 3 lists the MIC for Aeromonas liquefaciens.

The test system of experiment [4] is Pseudomonas sp. The experiment is described as above. Format: cell-based. The following applies: tryptose broth, overnight, about 37° C., read-out: minimum inhibitory concentration (MIC). As for the experimental part:
as §1, §2

Experiment [5] relates to Treponema hyodysenteriae. The experiment in a line: In vitro activity against Treponema hyodysenteriae on blood agar plates (MIC). Format: cell-based. The following applies: for MIC: Brachyspira hyodysenteriae, 96 h, read-out: minimum inhibitory concentration (MIC); for inhibition of growth of the treponema: doubling dilutions 100 mcg./ml. to 0.39 mcg./ml. The protocol: A number of representative compounds, namely, 5b, 8, and 15b, were tested for their in vitro activity against Treponema hyodysenteriae. The treponema were propagated on blood agar plates. Each plate which was prepared contained 20 ml. of trypticase soy agar (Baltimore Biological Laboratory [BBL]) with 5.0 g./l. of yeast extract (Difco) and 5 percent sterile defibrinated horse blood. The plates were sterile plastic 15 × 100 mm. petri plates. Incubation was carried out at 37° C. for 4 days under anaerobic conditions using the BBL Gas Pak system.
The concentrations of test compounds in this initial test were prepared in dilutions ranging from 2000 mcg./ml. to 7.8 mcg./ml. The test procedure was carried out in the following manner. Five ml. of a twenty-fold concentration in tryptose broth (Difco) of each filter-sterilized test compound dilution was mixed in a series of flasks containing 90 ml. of melted trypticase soy agar with yeast extract. Five ml. of horse blood was then added per flask. The contents of these flasks were then used to prepare a series of blood agar plates in doubling decreasing dilutions ranging from 100 mcg./ml. to 0.39 mcg./ml.
The treponema for inoculation of these plates were obtained by adding 3.0 ml. of sterile tryptose broth to the surface of a plate on which the treponema had been propagated. A sterile cotton-tipped swab was used to loosen the treponema from the agar. […] The inoculum was spread so that it covered the surface of each plate, a bent sterile plastic pipette being used for this purpose for each plate. The plates were incubated at about 36° C. for about 4 days and then examined for growth of the treponema. The minimum inhibitory concentration (MIC) of each test compound was the concentration that prevented growth of treponema.

For experiment [6], the system named is Trichomonas vaginalis. The experiment in a line: In vivo activity against Trichomonas vaginalis.
Experiment [7] deals with Trichomonas vaginalis. The experiment in a line: In vitro activity against Trichomonas vaginalis. Format: cell-based.
Setting [8] is: challenge dilution 10^-^4 subcutaneous.
Setting [9] is: challenge dilution 10^-^5 subcutaneous.
Where [10] appears, read: challenge dilution 10^-^6 subcutaneous.
[11] abbreviates: 5.0 mg./kg. intraperitoneal, challenge dilution 10^-^4 subcutaneous.
Where [12] appears, read: 5.0 mg./kg. intraperitoneal, challenge dilution 10^-^5 subcutaneous.
[13] abbreviates: 5.0 mg./kg. intraperitoneal, challenge dilution 10^-^6 subcutaneous.
The mark [14] stands for this setting: Aeromonas liquefaciens, tryptose broth, overnight, about 37° C.
Setting [15] is: blood agar plates, about 36° C., about 4 days.

Values after ≈ are worked out from the molar mass of the structure shown. Like-named read-outs stand apart in the source and are kept apart here.

In the case of `Cc1nc2c(c(-c3ncc([N+](=O)[O-])n3C)nn2C)c(=O)[nH]1` [Example 13, 1,5-Dihydro-1,6-dimethyl-3-(1-methyl-5-nitroimidazol-2-yl)-4H-pyrazolo[3,4-d]pyrimidin-4-one], the responders at 2.5 mg/kg in experiment [1] (setting [8]) was 20%; in experiment [1] (setting [9]), 20%; in experiment [1] (setting [10]), 60%. The figures for the responders at 5 mg/kg in experiment [1] (setting [11]), in experiment [1] (setting [12]) and in experiment [1] (setting [13]) were 10%, 50% and 50%, respectively. In experiment [2], the “in vivo activity against Salmonella typhimurium in chicks” value (from here on “in vivo activity … in chicks”) was “active in vivo against Salmonella typhimurium in chicks”.
For the compound `CCCn1cnc2c(c(-c3ncc([N+](=O)[O-])n3C)nn2C)c1=N.O=[N+]([O-])O` [Example 5b, 4,5-Dihydro-4-imino-1-methyl-3-(1-methyl-5-nitroimidazol-2-yl)-5-propyl-1H-pyrazolo[3,4-d]pyrimidine mononitrate], the MIC is 25 µg/mL in experiment [3], 3.12 µg/mL in experiment [4] and no more than 1.56 µg/mL in experiment [5]. In addition, the “inhibition of growth of the treponema” value in experiment [5] was “inhibited growth of the treponema at each of the levels tested”.
On to `Cn1nc(-c2ncc([N+](=O)[O-])n2C)c2c1NC(CCl)(OC(=O)CCl)NC2=O` (centres unmarked) [Example 3, 6-(Chloromethyl)-6,7-dihydro-6-hydroxy-1-methyl-3-(1-methyl-5-nitroimidazol-2-yl)-1H-pyrazolo[3,4-d]pyrimidin-4-(5H)-one, chloroacetate ester], for which the responders at 2.5 mg/kg in experiment [1] (setting [8]) is 30%; in experiment [1] (setting [9]), 10%; in experiment [1] (setting [10]), 20%. Besides, the figures for the responders at 5 mg/kg in experiment [1] (setting [11]), in experiment [1] (setting [12]) and in experiment [1] (setting [13]) were 5%, 20% and 25%, respectively. In experiment [6], the “in vivo activity against Trichomonas vaginalis” value is “active both in vitro and in vivo against Trichomonas vaginalis”. Moreover, the “in vitro activity against Trichomonas vaginalis” value (shortened to “in vitro activity”) in experiment [7] is “active both in vitro and in vivo against Trichomonas vaginalis”.
For the compound `CCc1nc2c(c(-c3ncc([N+](=O)[O-])n3C)nn2C)c(=O)[nH]1` [Example 2, 6-Ethyl-1,5-dihydro-1-methyl-3-(1-methyl-5-nitroimidazol-2-yl)-4H-pyrazolo[3,4-d]pyrimidin-4-one], the results for the responders at 5 mg/kg in experiment [1] (setting [11]), in experiment [1] (setting [12]) and in experiment [1] (setting [13]) were 20%, 33.3% and 33.3%, respectively. Further, the MIC in experiment [3] (setting [14]) and in experiment [4] was 50 µg/mL (≈ 165 µM) each time. In experiment [2], the “in vivo activity … in chicks” value is reported as “active in vivo against Salmonella typhimurium in chicks”.
Consider `CN(C)CCn1cnc2c(c(-c3ncc([N+](=O)[O-])n3C)nn2C)c1=N` [Example 8, 5-[2-(Dimethylamino)ethyl]4,5-dihydro-4-imino-1-methyl-3-(1-methyl-5-nitroimidazol-2-yl)-1H-pyrazolo[3,4-d]pyrimidine], for which, in experiment [1] (setting [11]), the “Survival ratio (mice surviving / mice tested)” value was 10/10. For the same compound, the figures for the responders at 1.25 mg/kg in experiment [1] (setting [8]), in experiment [1] (setting [9]) and in experiment [1] (setting [10]) were 20%, 40% and 60%, respectively. Also, the responders at 2.5 mg/kg in experiment [1] (setting [8]) is 40%; in experiment [1] (setting [9]), 60%; in experiment [1] (setting [10]) it was 100%. Besides, the responders at 5 mg/kg in experiment [1] (setting [12]) and in experiment [1] (setting [13]) was 100% throughout. For the same compound, the “in vivo activity against Trichomonas vaginalis” value in experiment [6] was “active both in vitro and in vivo against Trichomonas vaginalis”. Also, the results for the MIC in experiment [3] (setting [14]), in experiment [4] and in experiment [5] (setting [15]) were 12.5 µg/mL (≈ 36.2 µM), 1.56 µg/mL (≈ 4.52 µM) and no more than 1.56 µg/mL, respectively. Moreover, the “in vivo activity … in chicks” value in experiment [2] is listed as “active in vivo against Salmonella typhimurium in chicks”. Besides, the “in vitro activity” value in experiment [7] is “active both in vitro and in vivo against Trichomonas vaginalis”. Further, the “inhibition of growth of the treponema” value in experiment [5] was “inhibited growth of the treponema at each of the levels tested”.
With `Cn1c([N+](=O)[O-])cnc1-c1nn(C)c2ncn(CCN3CCOCC3)c(=N)c12` [Example 15b, 4,5-Dihydro-4-imino-1-methyl-3-(1-methyl-5-nitroimidazol-2-yl)-5-(2-morpholinoethyl)-1H-pyrazolo[3,4-d]-pyrimidine diphosphate], the MIC in experiment [3] (setting [14]) was 50 µg/mL; in experiment [4] it was 1.56 µg/mL; in experiment [5] (setting [15]), no more than 1.56 µg/mL. Besides, the “inhibition of growth of the treponema” value in experiment [5] is on record as “inhibited growth of the treponema at each of the levels tested”.
For `CN(C)CCCn1cnc2c(c(-c3ncc([N+](=O)[O-])n3C)nn2C)c1=N` [Example 10, 5-[3-(Dimethylamino)propyl]-4,5-dihydro-4-imino-1-methyl-3-(1-methyl-5-nitroimidazol-2-yl)-1H-pyrazolo[3,4-d]pyrimidine], the results for the responders at 5 mg/kg in experiment [1] (setting [11]), in experiment [1] (setting [12]) and in experiment [1] (setting [13]) were 100%, 80% and 100%, respectively. Moreover, the “in vivo activity against Trichomonas vaginalis” value in experiment [6] is “active both in vitro and in vivo against Trichomonas vaginalis”. Moreover, the “in vitro activity” value in experiment [7] was “active both in vitro and in vivo against Trichomonas vaginalis”.

Values taken from US4001230A, “3-(5-Nitroimidazol-2-yl)pyrazolo[3,4-d]pyrimidine compounds” (Eli Lilly and Company, priority 1975, dated 1977).
